Measured values taken from patent publication US20210274787A1, “USE OF A DIFLUORO-(2-HYDROXYPROPYL)PYRIDINE COMPOUND AS A FUNGICIDE FOR CONTROL OF LEAF SPOT OF SUGAR BEETS” (Dow AgroSciences LLC, priority 2016, published 2021).

Test system: Cercospora beticola (CERCBE), leaf spot of sugar beet
Test: Field assessment of Cercospora beticola (CERCBE) in sugar beets
Format: in vivo
Details: for % Control CERCBE (based on AUDPC): sugar beet field, natural infection
From the text: Field Assessment of Cercospora beticola (CERCBE) in Sugar Beets:
A fungicidal treatment containing an EC formulation of compound I by itself and in combination with four adjuvants was sprayed on sugar beet plants (BEAVA, Corvina variety) six times during the course of 7 weeks ([…]) under natural infection with CERCBE. The commercial standard used in the study was difenoconazole (Score) and was applied at 100 g ai/ha. The treatment was part of an experimental trial designed as a randomized complete block with four replications and a plot of approximately 1×2 m. Compound I was applied at water volume of 400 L/ha, using a backpack precision plot sprayer (BKPCKAIR, EVEN FAN TEEJET TP 8004EVS Nozzle, 1 m boom width) and pressurized at 250 kPa.
Disease severity was recorded as a percentage of visual diseased foliage on whole plot. Cercospora leaf spot infection was assessed five times, 6 days after application A (DAAA); 6 DAAC; 12 DAAB; and 7 and 21 DAAF. The disease infection was recorded following EPPO PP 1/1 (4) guideline prescriptions. Area under the disease progress curve (AUDPC) was calculated for each plot using the sets of recorded severity data. Relative AUDPC (% control based on AUDPC) was calculated as percent of the nontreated control.

SMILES	CERCBE control compared with difenoconazole (statistical) (100 g ai/ha in 0.15% Phase II, Ethomeen, Lutensol or Agnique BP-420, ANOVA and Tukey's test (p=0.10))	level of control of CERCBE compared with difenoconazole (numerical) (100 g ai/ha in Agnique BP-420 (50% EC formulation at 0.3% v/v) or 0.15% Lutensol)	fungicidal effect on Cercospora beticola (leaf spot of sugar beet, general statement)	% Control CERCBE (based on AUDPC) (50 g ai/ha, adjuvant Agnique BP-420 (50% w/w at 0.3% v/v))	% Control CERCBE (based on AUDPC) (50 g ai/ha, no adjuvant)	% Control CERCBE (based on AUDPC) (100 g ai/ha, adjuvant Agnique BP-420 (50% w/w at 0.3% v/v))	% Control CERCBE (based on AUDPC) (100 g ai/ha, adjuvant Ethomeen T18H (0.15% v/v))	% Control CERCBE (based on AUDPC) (100 g ai/ha, adjuvant Lutensol TDA 9 (0.15% v/v))	% Control CERCBE (based on AUDPC) (100 g ai/ha, adjuvant Phase II (0.15% v/v))	% Control CERCBE (based on AUDPC) (100 g ai/ha, no adjuvant)	% Control CERCBE (based on AUDPC) (150 g ai/ha, adjuvant Agnique BP-420 (50% w/w at 0.3% v/v))	% Control CERCBE (based on AUDPC) (150 g ai/ha, no adjuvant)	% Control CERCBE (based on AUDPC) (100 g ai/ha, Score (commercial standard))
N#Cc1ccc(Oc2ccc(C(F)(F)C(O)(Cn3nc[nH]c3=S)c3ccc(F)cc3F)nc2)cc1 (stereo not shown) [Compound I, 4-((6-(2-(2,4-difluorophenyl)-1,1-difluoro-2-hydroxy-3-(5-thioxo-4,5-dihydro-1H-1,2,4-triazol-1-yl)propyl)pyridin-3-yl)oxy)benzonitrile]	statistically equivalent to that of the commercial standard difenoconazole at 100 g ai/ha	numerically equivalent to that of difenoconazole at 100 g ai/ha	significant fungicidal effect	B (51-74)	B (51-74)	A (75-100)	B (51-74)	A (75-100)	B (51-74)	B (51-74)	A (75-100)	B (51-74)	–
CC1COC(Cn2cncn2)(c2ccc(Oc3ccc(Cl)cc3)cc2Cl)O1 (stereo not shown) [Difenoconazole, difenoconazole, reference compound]	–	–	–	–	–	–	–	–	–	–	–	–	A (75-100)
